How the values were obtained:
Assay type in all cases: cell-based, human
MOLT-4 = assay: NCI 60 panel growth inhibition (SRB), leukemia; details: MOLT-4, 10 μM
Procedure: (§1) Screening of cytotoxic activity against a panel of sixty human tumor cell lines The selected compounds by NCI were evaluated for their anticancer activity in a two- stage process. […] Then, the output from the single dose screen is reported as a mean graph. […] Assay protocol. […] For a typical screening experiment, cells are inoculated into 96 well microtiter plates in 100 µL at plating densities ranging from 5000 to 40,000 cells/well depending on the doubling time of individual cell lines. […] After 24 h, two plates of each cell line are fixed in situ with TCA, to represent a measurement of the cell population for each cell line at the time of drug addition (Tz). The experimental drugs are solubilized in dimethyl sulfoxide at 400-fold the desired final maximum test concentration and stored frozen prior to use. At the time of drug addition, an aliquot of frozen concentrate is thawed and diluted to twice the desired final maximum test concentration with complete medium containing 50 µg/mL gentamicin. Additional four, 10-fold or ½ log serial dilutions are made to provide a total of five drug concentrations plus control. […] For adherent cells, the assay is terminated by the addition of cold TCA. […] The supernatant is discarded, and the plates are washed five times with tap water and air dried. […] Using the seven absorbance measurements [time zero, (Tz), control growth, (C), and test growth in the presence of drug at the five concentration levels (Ti)], the percentage growth is calculated at each of the drug concentrations levels. Percentage growth inhibition is calculated as: [(Ti Tz)/(C–Tz)] x 100 for concentrations for which Ti>/=Tz and [(Ti-Tz)/Tz] x 100 for concentrations for which Ti < Tz. Three dose response parameters are calculated for each experimental agent. […] The drug concentration resulting in total growth inhibition (TGI) is calculated from Ti = Tz. […] Values are calculated for each of these three parameters if the level of activity is reached; however, if the effect is not reached or is exceeded, the value for that parameter is expressed as greater or less than the maximum or minimum concentration tested.

HL-60(TB) = assay: NCI 60 panel growth inhibition (SRB), leukemia; details: HL-60(TB), 10 μM
Procedure: as §1

K-562 = assay: NCI 60 panel growth inhibition (SRB), leukemia; details: K-562, 10 μM
Procedure: as §1

CCRF-CEM = assay: NCI 60 panel growth inhibition (SRB), leukemia; details: 10 μM
Procedure: as §1

RPMI-8226 = assay: NCI 60 panel growth inhibition (SRB), leukemia; details: RPMI-8226, 10 μM
Procedure: as §1

SR = assay: NCI 60 panel growth inhibition (SRB), leukemia; details: 10 μM
Procedure: as §1

COLO 205 = assay: NCI 60 panel growth inhibition (SRB), colon cancer; details: COLO 205, 10 μM
Procedure: as §1

HCT-15 = assay: NCI 60 panel growth inhibition (SRB), colon cancer; details: HCT-15, 10 μM
Procedure: as §1

SW-620 = assay: NCI 60 panel growth inhibition (SRB), colon cancer; details: SW-620, 10 μM
Procedure: as §1

KM12 = assay: NCI 60 panel growth inhibition (SRB), colon cancer; details: KM12, 10 μM
Procedure: as §1

HCT-116 = assay: NCI 60 panel growth inhibition (SRB), colon cancer; details: HCT-116, 10 μM
Procedure: as §1

HCC-2998 = assay: NCI 60 panel growth inhibition (SRB), colon cancer; details: HCC-2998, 10 μM
Procedure: as §1

NCI-H460 = assay: NCI 60 panel growth inhibition (SRB), non-small cell lung cancer; details: NCI-H460, 10 μM
Procedure: as §1

NCI-H226 = assay: as above; details: NCI-H226, 10 μM
Procedure: as §1

HOP-62 = assay: as above; details: HOP-62, 10 μM
Procedure: as §1

NCI-H23 = assay: as above; details: NCI-H23, 10 μM
Procedure: as §1

A549/ATCC = assay: as above; details: 10 μM
Procedure: as §1

NCI-H522 = assay: as above; details: NCI-H522, 10 μM
Procedure: as §1

NCI-H322M = assay: as above; details: 10 μM
Procedure: as §1

EKVX = assay: as above; details: 10 μM
Procedure: as §1

HOP-92 = assay: as above; details: HOP-92, 10 μM
Procedure: as §1

IGROV1 = assay: NCI 60 panel growth inhibition (SRB), ovarian cancer; details: IGROV1, 10 μM
Procedure: as §1

SK-OV-3 = assay: as above; details: SK-OV-3, 10 μM
Procedure: as §1

NCI/ADR-RES = assay: as above; details: 10 μM
Procedure: as §1

OVCAR-3 = assay: as above; details: OVCAR-3, 10 μM
Procedure: as §1

OVCAR-4 = assay: as above; details: OVCAR-4, 10 μM
Procedure: as §1

OVCAR-8 = assay: as above; details: OVCAR-8, 10 μM
Procedure: as §1

OVCAR-5 = assay: as above; details: OVCAR-5, 10 μM
Procedure: as §1

SF-268 = assay: NCI 60 panel growth inhibition (SRB), CNS cancer; details: SF-268, 10 μM
Procedure: as §1

SNB-19 = assay: NCI 60 panel growth inhibition (SRB), CNS cancer; details: SNB-19, 10 μM
Procedure: as §1

SF-539 = assay: NCI 60 panel growth inhibition (SRB), CNS cancer; details: SF-539, 10 μM
Procedure: as §1

SF-295 = assay: NCI 60 panel growth inhibition (SRB), CNS cancer; details: SF-295, 10 μM
Procedure: as §1

SNB-75 = assay: NCI 60 panel growth inhibition (SRB), CNS cancer; details: SNB-75, 10 μM
Procedure: as §1

[1] = system: NCI 60 cancer cell line panel; assay: NCI 60 panel growth inhibition (SRB), whole panel; details: mean over NCI 60 panel, 10 μM
Procedure: as §1

Row | SMILES | GI% (MOLT-4) [%] | GI% (HL-60(TB)) | GI% (K-562) | GI% (CCRF-CEM) [%] | GI% (RPMI-8226) [%] | GI% (SR) | GI% (COLO 205) | GI% (HCT-15) [%] | GI% (SW-620) | GI% (KM12) [%] | GI% (HCT-116) | GI% (HCC-2998) | GI% (NCI-H460) | GI% (NCI-H226) [%] | GI% (HOP-62) | GI% (NCI-H23) [%] | GI% (A549/ATCC) [%] | GI% (NCI-H522) | GI% (NCI-H322M) | GI% (EKVX) [%] | also measured
1 | O=C(COc1ccccc1-c1nc2ccccc2s1)NN=C1C(=O)Nc2ccccc21 [Compound 9a, 2-(2-(Benzo[d]thiazol-2-yl)phenoxy)-N′-(2-oxoindolin-3-ylidene)acetohydrazide] | 8.23 | – (GI% < 5%) | – (GI% < 5%) | 20.22 | 21.80 | – (GI% < 5%) | – (GI% < 5%) | 8.99 | – (GI% < 5%) | 6.23 | – (GI% < 5%) | – (GI% < 5%) | – (GI% < 5%) | 23.61 | – (GI% < 5%) | 6.36 | 11.63 | – (GI% < 5%) | – (GI% < 5%) | 37.48 | GI% (HOP-92): 6.37%; GI% (IGROV1): – (GI% < 5%); GI% (SK-OV-3): – (GI% < 5%); GI% (NCI/ADR-RES): – (GI% < 5%); GI% (OVCAR-3): – (GI% < 5%); GI% (OVCAR-4): 13.08%; GI% (OVCAR-8): – (GI% < 5%); GI% (OVCAR-5): – (GI% < 5%); GI% (SF-268): 6.56%; GI% (SNB-19): 6.15%; GI% (SF-539): 5.56%; GI% (SF-295): 14.46%; GI% (SNB-75): – (GI% < 5%)
2 | Cc1ccc2c(c1)C(=NNC(=O)COc1ccccc1-c1nc3ccccc3s1)C(=O)N2 [Compound 9b, 2-(2-(Benzo[d]thiazol-2-yl)phenoxy)-N′-(5-methyl-2-oxoindolin-3-ylidene)acetohydrazide] | 29.12 | 8.38% | 20.57% | 23.64 | 30.53 | 18.71% | – (GI% < 5%) | 31.29 | – (GI% < 5%) | 18.69 | 53.56% | 19.53% | 34.24% | 105.34 | 51.18% | 85.13 | 28.01 | 37.21% | 19.44% | 24.46 | GI% (HOP-92): 35.86%; GI% (IGROV1): 35.91%; GI% (SK-OV-3): 15.84%; GI% (NCI/ADR-RES): 71.87%; GI% (OVCAR-3): 79.13%; GI% (OVCAR-4): 99.49%; GI% (OVCAR-8): 57.37%; GI% (OVCAR-5): 7.29%; GI% (SF-268): 43.82%; GI% (SNB-19): 74.25%; GI% (SF-539): 76.88%; GI% (SF-295): 44.34%; GI% (SNB-75): 54.28%; Mean GI% [1]: 44.28%
3 | COc1ccc2c(c1)C(=NNC(=O)COc1ccccc1-c1nc3ccccc3s1)C(=O)N2 [Compound 9c, 2-(2-(Benzo[d]thiazol-2-yl)phenoxy)-N′-(5-methoxy-2-oxoindolin-3-ylidene)acetohydrazide] | 47.19 | 15.59% | 30.54% | 60.17 | 48.87 | 20.98% | – (GI% < 5%) | 40.05 | – (GI% < 5%) | 15.67 | 18.17% | – (GI% < 5%) | 6.01% | 23.90 | – (GI% < 5%) | 17.94 | 25.86 | – (GI% < 5%) | – (GI% < 5%) | 25.93 | GI% (HOP-92): – (GI% < 5%); GI% (IGROV1): – (GI% < 5%); GI% (SK-OV-3): – (GI% < 5%); GI% (NCI/ADR-RES): 25.58%; GI% (OVCAR-3): – (GI% < 5%); GI% (OVCAR-4): 32.22%; GI% (OVCAR-8): 19.15%; GI% (OVCAR-5): – (GI% < 5%); GI% (SF-268): 13.85%; GI% (SNB-19): 7.69%; GI% (SF-539): 5.44%; GI% (SF-295): 20.67%; GI% (SNB-75): – (GI% < 5%); Mean GI% [1]: 12.24%
4 | O=C(COc1ccccc1-c1nc2ccccc2s1)NN=C1C(=O)Nc2ccc(Br)cc21 [Compound 9f, 2-(2-(Benzo[d]thiazol-2-yl)phenoxy)-N′-(5-bromo-2-oxoindolin-3-ylidene)acetohydrazide] | 36.74 | 29.39% | 22.52% | 21.91 | 29.01 | 43.03% | – (GI% < 5%) | 17.46 | – (GI% < 5%) | 15.34 | 53.40% | 11.62% | 18.32% | 106.99 | 74.09% | 40.56 | 29.34 | 51.70% | 17.70% | 19.72 | GI% (HOP-92): 51.76%; GI% (IGROV1): 42.62%; GI% (SK-OV-3): 17.03%; GI% (NCI/ADR-RES): 49.76%; GI% (OVCAR-3): 81.63%; GI% (OVCAR-4): 90.58%; GI% (OVCAR-8): 71.28%; GI% (OVCAR-5): – (GI% < 5%); GI% (SF-268): 45.84%; GI% (SNB-19): 81.08%; GI% (SF-539): 110.59%; GI% (SF-295): 32.61%; GI% (SNB-75): 84.86%; Mean GI% [1]: 43.78%
5 | COc1cccc(-c2nc3ccccc3s2)c1OCC(=O)NN=C1C(=O)Nc2ccccc21 [Compound 9g, 2-(2-(Benzo[d]thiazol-2-yl)-6-methoxyphenoxy)-N′-(2-oxoindolin-3-ylidene)acetohydrazide] | 49.06 | 15.30% | 32.23% | 41.07 | 50.80 | 18.95% | 25.08% | 25.54 | – (GI% < 5%) | 8.64 | 20.48% | – (GI% < 5%) | – (GI% < 5%) | 45.16 | – (GI% < 5%) | 25.24 | 16.44 | 33.32% | 10.24% | 29.56 | GI% (HOP-92): 34.60%; GI% (IGROV1): 7.95%; GI% (SK-OV-3): 8.22%; GI% (NCI/ADR-RES): 28.45%; GI% (OVCAR-3): – (GI% < 5%); GI% (OVCAR-4): 27.14%; GI% (OVCAR-8): 10.62%; GI% (OVCAR-5): – (GI% < 5%); GI% (SF-268): 5.11%; GI% (SNB-19): 13.10%; GI% (SF-539): 9.46%; GI% (SF-295): 29.36%; GI% (SNB-75): – (GI% < 5%); Mean GI% [1]: 15.46%

— PMC11396129, “Oxindole–benzothiazole hybrids as CDK2 inhibitors and anticancer agents: design, synthesis and biological evaluation” (BMC Chemistry, 2024)
